Where “and” joins values, the source holds several entries; their conditions need not be identical. Equal values may be shown once.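 In this assay, cells in 96-well plates receive the compound at five concentrations for 48 hours. Endpoints are linearly interpolated between the surrounding concentrations. At the GI50, growth is halved. TGI: concentration producing complete growth inhibition.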

Test systems include DLD-1 colon; NCI-H23 lung; MOLT-4 leukemia; SNB-78 CNS; EKVX NSCLC; UACC-257 melanoma; NCI-H460 lung; HOP-62 NSCLC; PC-3 prostate; NCI/ADR-RES ovarian.
Assay in all cases: inhibition of tumour cell growth, NCI panel, 48 h

`O=C(NNC(=O)c1cc(/C=C/c2cccc([N+](=O)[O-])c2)[nH]c(=S)n1)Nc1ccc(Cl)cc1`: the TGI with DLD-1 colon was 47.8 µM; with NCI-H23 lung, greater than 100 µM; in the test with MOLT-4 leukemia, 72 µM; in the test on SNB-78 CNS, greater than 100 µM; in the test with EKVX NSCLC, greater than 100 µM; in the test on UACC-257 melanoma it was greater than 100 µM. The TGI in the test with NCI-H460 lung and in the test with HOP-62 NSCLC was greater than 100 µM in each case.

As to `COC(OC)[C@@H](C)[C@H](O)[C@](C)(O)C1OC(C)(C)OC(C(C)C=C(C)C)C1C` (stereo partly drawn), the TGI with DLD-1 colon, in the test on NCI-H23 lung, in the test with MOLT-4 leukemia, with SNB-78 CNS, in the test on EKVX NSCLC and in the test on UACC-257 melanoma was greater than 100 µM throughout. The TGI in the test with NCI-H460 lung and in the test with HOP-62 NSCLC was greater than 100 µM each time.

Consider `O=C1/C(=C/c2ccccc2)CN(C(=O)OCc2ccccc2)C/C1=C\c1ccccc1`, for which the GI50 in the test on DLD-1 colon is 4.14 µM; in the test with MOLT-4 leukemia, 2.18 µM; in the test on UACC-257 melanoma, 9.19 µM; in the test on NCI-H460 lung, 5.47 µM. The TGI with DLD-1 colon is 14.2 µM; in the test on NCI-H23 lung, 32.6 µM; in the test with MOLT-4 leukemia, 7.49 µM and 19 µM; with SNB-78 CNS, 25.4 µM; with PC-3 prostate, 57.7 µM; in the test with EKVX NSCLC, greater than 31.6 µM. In addition, the TGI is 28.3 µM in the test with UACC-257 melanoma, greater than 46.4 µM in the test on NCI-H460 lung and 39.9 µM with HOP-62 NSCLC.

Take `Nc1nc(N)c2nc(CNc3ccc(C(=O)NC(CCCNC(=O)c4ccccc4C(=O)O)C(=O)O)cc3)cnc2n1` (stereo not drawn): the TGI with DLD-1 colon, with NCI-H23 lung, in the test with MOLT-4 leukemia, in the test on SNB-78 CNS, in the test with PC-3 prostate and in the test on NCI/ADR-RES ovarian was greater than 100 µM throughout. The TGI in the test with EKVX NSCLC, with UACC-257 melanoma, in the test on NCI-H460 lung and with HOP-62 NSCLC was greater than 100 µM throughout. Besides, the GI50 with NCI-H23 lung was 0.00401 µM; with MOLT-4 leukemia it was 0.00353 µM; with NCI/ADR-RES ovarian, 0.00273 µM; in the test on UACC-257 melanoma it was 0.0155 µM; in the test with NCI-H460 lung, 0.00045 µM; in the test with HOP-62 NSCLC, < 0.02 µM and 0.00449 µM and < 0.0546 µM.

On to `CCOC(=O)NC(=O)c1cn(CCN2CCN(C(=O)CCCCCCCCCCNc3ncnc4nc[nH]c34)CC2)c(=O)[nH]c1=O`, for which the TGI with DLD-1 colon, in the test with NCI-H23 lung, with MOLT-4 leukemia, with SNB-78 CNS, in the test on EKVX NSCLC and in the test with UACC-257 melanoma was greater than 100 µM throughout. The TGI with NCI-H460 lung and in the test on HOP-62 NSCLC was greater than 100 µM in each case.

`COc1cc(-c2cc(=O)c3cc(C)c(C)c(C(=O)O)c3o2)cc(OC)c1OC`: the TGI in the test on DLD-1 colon, in the test with NCI-H23 lung, in the test on MOLT-4 leukemia, with SNB-78 CNS, with EKVX NSCLC and with UACC-257 melanoma was greater than 100 µM each time. Also, the TGI in the test with NCI-H460 lung and in the test on HOP-62 NSCLC was greater than 100 µM each time.

For `Cn1c2c(c3ccccc31)CCN(CCCCN1CCN(c3cccc(Cl)c3)CC1)C2=O`, the TGI in the test on DLD-1 colon was 25.1 µM; in the test with NCI-H23 lung, 27.4 µM; in the test with MOLT-4 leukemia, 31.6 µM; in the test on SNB-78 CNS it was 27.8 µM; in the test with EKVX NSCLC, 69.2 µM; with UACC-257 melanoma, 19.8 µM. Moreover, the TGI in the test with NCI-H460 lung turned out to be 28 µM; in the test with HOP-62 NSCLC it was 30.7 µM.

Regarding `COc1ccc(CNc2nc3c(NC(C)=O)cc(C(F)(F)F)cc3nc2-c2ccccc2)cc1OC`, the TGI with DLD-1 colon, in the test with NCI-H23 lung, in the test with MOLT-4 leukemia, in the test on SNB-78 CNS, in the test with EKVX NSCLC and in the test on UACC-257 melanoma was greater than 100 µM in each case. Besides, the TGI in the test with NCI-H460 lung and with HOP-62 NSCLC was greater than 100 µM in each case.

With `CN(C)c1n/c(=N/c2ncn[nH]2)ss1`, the TGI in the test with DLD-1 colon, in the test on NCI-H23 lung, in the test with MOLT-4 leukemia, in the test on SNB-78 CNS, in the test with EKVX NSCLC and with UACC-257 melanoma was greater than 100 µM in each case. The TGI in the test on NCI-H460 lung and with HOP-62 NSCLC was greater than 100 µM throughout.

`O=C(NO)C(=O)Nc1ccc(Cl)cc1[N+](=O)[O-]`: the TGI with DLD-1 colon, in the test with NCI-H23 lung, with MOLT-4 leukemia, in the test on SNB-78 CNS, in the test on EKVX NSCLC and with UACC-257 melanoma was greater than 100 µM in each case. Besides, the TGI in the test on NCI-H460 lung and in the test with HOP-62 NSCLC was greater than 100 µM throughout.

The values are drawn from PubChem BioAssay (NCI).
